The record followed here is patent EP2902035B1, “Cell-permeable peptide inhibitors of the JNK signal transduction pathway for use in the treatment of inflammatory eye diseases” (Xigen Inflammation Ltd., priority 2010, dated 2012).

The subject of this assay is Endotoxin-Induced Uveitis (EIU). The assay can be described thus: Scoring of Endotoxin-Induced Uveitis (EIU) by slit lamp. It is filed as in vivo, Lewis rats. Particulars: scored at 24 hours on a scale from 0 to 5, mean ± SEM. On the procedure:
For intravenous (IV) injection, 100 µL of saline (NaCl 0.9%) or the JNK-inhibitor (poly-)peptide of SEQ ID NO: 11 (20 µg/kg in saline) were injected in a tail vein using a 25G-needle connected on a 1 mL syringe (Becton Dickinson, France). For intravitreous (IVT) injection, 5 µL of saline or the JNK-inhibitor (poly-)peptide of SEQ ID NO: 11 (0.2 µg/injection in saline) were injected in both eyes using a 30G disposable needle (BD-microfine syringe, nm Médical, Asnière, France). The IV dose of 20 µg/kg (i.e. 3.5 µg/rat in rats weighing 175g) was chosen according to studies showing that the JNK-inhibitor (poly-)peptide of SEQ ID NO: 11 is active at very low doses in other models. For intravitreous injections, the inventors used the minimal dose used in direct ear application after acute noise trauma in patients. This corresponds to 5% of the dose injected intravenously. […]
In a first set of experiment, 70 rats were randomized into 14 experimental groups with 5 rats per group. […] Clinical ocular inflammation was recorded only at 24 hours (see Scoring of Endotoxin-Induced Uveitis (EIU) section). […]
Animals were examined by slit lamp at 24 hours, the clinical peak of the disease in our experiments. The intensity of clinical ocular inflammation was scored on a scale from 0 to 5 for each eye as described previously 10: grade (0) indicates no inflammation; grade (1) indicates the presence of a minimal iris and conjunctival vasodilation but without the observation of flare or cells in the anterior chamber (AC); grade (2) indicates the presence of moderate iris and conjunctival vessel dilation but without evident flare or cells in the AC; grade (3) indicates the presence of intense iris vessels dilation, flare and less than 10 cells per slit lamp field in the AC; grade (4) indicates the presence of more severe clinical signs than grade 3, with more than 10 cells in the AC with or without the formation of a hypopion; grade (5) indicates the presence of intense inflammatory reaction, fibrin formation in the AC and total seclusion of the pupil. […]

Consider `CC(C)C[C@@H](NC(=O)[C@@H](Cc1ccccc1)NC(=O)[C@H]1CCCN1C(=O)[C@@H](CCC(N)=O)NC(=O)[C@H](NC(=O)[C@H]1CCCN1C(=O)[C@@H](CCCNC(=N)N)NC(=O)[C@@H](CO)NC(=O)[C@@H](CCC(N)=O)NC(=O)[C@H](N)CC(=O)O)C(C)C)C(=O)N[C@H](CC(N)=O)C(=O)N[C@H](CC(C)C)C(=O)N[C@@H](C(=O)N[C@@H](C(=O)N1CCC[C@@H]1C(=O)N[C@H](CCCNC(=N)N)C(=O)N[C@H](CCCCN)C(=O)N1CCC[C@@H]1C(=O)N[C@H](CCCNC(=N)N)C(=O)N1CCC[C@@H]1C(=O)N1CCC[C@@H]1C(=O)N[C@H](CCCNC(=N)N)C(=O)N[C@H](CCCNC(=N)N)C(=O)N[C@H](CCCNC(=N)N)C(=O)N[C@H](CCC(N)=O)C(=O)N[C@H](CCCNC(=N)N)C(=O)N[C@H](CCCNC(=N)N)C(=O)N[C@H](CCCCN)C(=O)N[C@H](CCCCN)C(=O)N[C@H](CCCNC(=N)N)C(=O)NCC(=O)O)[C@H](C)O)[C@H](C)O` [SEQ ID NO: 11], for which the EIU clinical scores (20 µg/kg intravenous (IV) injection at LPS challenge) came to 2.0 ± 0.1 A.U and the EIU clinical scores (intravitreous (IVT) administration at LPS challenge (SEQ ID NO: 11: 0.2 µg/injection)) came to 2.2 ± 0.2 A.U.
